In patent US10344025B2, “GLS1 inhibitors for treating disease” (Board of Regents, The University of Texas System, priority 2014, dated 2019):

Columns and labels:
A549 cells = test: Proliferation Assay (A549 viability, Cell Titer Fluor, 72 hours); format: cell-based; conditions: Homo sapiens, A549, 72 h
Procedure, shortened: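 Cell Titer Fluor fluorescence after 72 h compound treatment (0.5% DMSO, 37 °C, 5% CO2) of A549 cells plated 24 h earlier at 1000/well. Four-parameter logistic fitting gave IC50.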

[1] = target: purified recombinant human GAC (GLS1) (Homo sapiens (Human), UniProt O94925); test: GLS1 Enzymatic Activity Assay (dual-coupled enzymatic assay, resorufin/Amplex UltraRed readout); format: biochemical;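 further: glutamate from GAC coupled via glutamate oxidase and peroxidase to resorufin, read as fluorescence (ex 530, em 590 nm) kinetically or at 20 min, four-parameter logistic IC50 fit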
Chain of purified recombinant human GAC (GLS1) (O94925 other isoform, or with tags, fused parts or gaps): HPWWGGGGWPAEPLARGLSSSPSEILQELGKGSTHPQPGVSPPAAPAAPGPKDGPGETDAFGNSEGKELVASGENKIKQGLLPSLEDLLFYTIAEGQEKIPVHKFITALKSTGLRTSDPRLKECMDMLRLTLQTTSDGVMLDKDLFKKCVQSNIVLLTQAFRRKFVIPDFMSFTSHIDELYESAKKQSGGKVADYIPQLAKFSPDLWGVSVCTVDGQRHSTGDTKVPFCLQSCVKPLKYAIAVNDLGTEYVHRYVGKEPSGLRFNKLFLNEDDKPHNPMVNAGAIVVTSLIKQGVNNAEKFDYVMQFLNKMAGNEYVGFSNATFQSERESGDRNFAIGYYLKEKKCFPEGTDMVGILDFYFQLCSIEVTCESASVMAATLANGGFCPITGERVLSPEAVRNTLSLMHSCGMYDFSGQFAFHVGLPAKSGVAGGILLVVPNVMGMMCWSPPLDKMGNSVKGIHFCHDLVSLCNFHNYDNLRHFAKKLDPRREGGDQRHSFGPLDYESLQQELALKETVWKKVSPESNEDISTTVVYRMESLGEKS

Cc1ccc(CNC(=O)c2nnc(CCCCn3cc(C(=O)NCc4cccc(OC(F)(F)F)c4)nn3)s2)cn1 [Example 60, N-[(6-methylpyridin-3-yl)methyl]-5-{4-[4-({[3-(trifluoromethoxy)phenyl]methyl}carbamoyl)-1H-1,2,3-triazol-1-yl]butyl}-1,3,4-thiadiazole-2-carboxamide]
EC50 (A549 cells): < 0.1 µM
IC50 [1]: < 0.1 µM

O=C(Cc1cccnc1)Nc1cn(CCCCn2cc(C(=O)NCC3CCCCC3)nn2)nn1 [Example 284, N-(cyclohexylmethyl)-1-(4-{4-[2-(pyridin-3-yl)acetamido]-1H-1,2,3-triazol-1-yl}butyl)-1H-1,2,3-triazole-4-carboxamide]
EC50 (A549 cells): 0.5 to 5 µM
IC50 [1]: 0.1 to 0.5 µM

O=C(NCc1cccc(C(F)(F)F)n1)c1cn(CCC(F)Cn2cc(C(=O)NCc3cc(C(F)(F)F)ccn3)nn2)nn1 (stereo not shown) [Example 474, 1-{2-fluoro-4-[4-({[6-(trifluoromethyl)pyridin-2-yl]methyl}carbamoyl)-1H-1,2,3-triazol-1-yl]butyl}-N-{[4-(trifluoromethyl)pyridin-2-yl]methyl}-1H-1,2,3-triazole-4-carboxamide]
EC50 (A549 cells): < 0.1 µM
IC50 [1]: < 0.1 µM

CNC(=O)c1cn(CCC(F)Cn2cc(C(=O)NCc3cc(OC(F)(F)F)ccc3F)nn2)nn1 (stereo not shown) [Example 153, 1-{3-fluoro-4-[4-({[2-fluoro-5-(trifluoromethoxy)phenyl]methyl}carbamoyl)-1H-1,2,3-triazol-1-yl]butyl}-N-methyl-1H-1,2,3-triazole-4-carboxamide]
EC50 (A549 cells): 0.1 to 0.5 µM
IC50 [1]: < 0.1 µM

O=C(CC1CCCC1)Nc1cn(CCCCn2cc(C(=O)NCc3ccccn3)nn2)nn1 [Example 277, 1-{4-[4-(2-cyclopentylacetamido)-1H-1,2,3-triazol-1-yl]butyl}-N-(pyridin-2-ylmethyl)-1H-1,2,3-triazole-4-carboxamide]
EC50 (A549 cells): 0.5 to 5 µM
IC50 [1]: 0.1 to 0.5 µM

O=C(NCc1cccc(OC(F)(F)F)c1)c1cn(CCCCc2nnc(C(=O)NCc3ccc(C(F)(F)F)nc3)s2)nn1 [Example 78, 5-{4-[4-({[3-(trifluoromethoxy)phenyl]methyl}carbamoyl)-1H-1,2,3-triazol-1-yl]butyl}-N-{[6-(trifluoromethyl)pyridin-3-yl]methyl}-1,3,4-thiadiazole-2-carboxamide]
EC50 (A549 cells): < 0.1 µM
IC50 [1]: < 0.1 µM

O=C(NCc1cc(C(F)(F)F)ccn1)c1cn(CC(F)CCc2nnc(C(=O)NCc3cccc(OC(F)(F)F)c3)s2)nn1 (stereo not shown) [Example 446, 5-{3-fluoro-4-[4-({[4-(trifluoromethyl)pyridin-2-yl]methyl}carbamoyl)-1H-1,2,3-triazol-1-yl]butyl}-N-{[3-(trifluoromethoxy)phenyl]methyl}-1,3,4-thiadiazole-2-carboxamide]
EC50 (A549 cells): < 0.1 µM
IC50 [1]: < 0.1 µM

O=C(Cc1cccc(OC(F)(F)F)c1)Nc1cn(CCC(F)Cn2cc(C(=O)NCc3ccccn3)nn2)nn1 (stereo not shown) [Example 403, 1-[2-fluoro-4-(4-{2-[3-(trifluoromethoxy)phenyl]acetamido}-1H-1,2,3-triazol-1-yl)butyl]-N-(pyridin-2-ylmethyl)-1H-1,2,3-triazole-4-carboxamide]
EC50 (A549 cells): < 0.1 µM
IC50 [1]: < 0.1 µM

O=C(NCc1cccc(OC(F)(F)F)c1)c1cn(CCC(F)Cn2cc(C(=O)NCc3ncccc3F)nn2)nn1 (stereo not shown) [Example 429, 1-{2-fluoro-4-[4-({[3-(trifluoromethoxy)phenyl]methyl}carbamoyl)-1H-1,2,3-triazol-1-yl]butyl}-N-[(3-fluoropyridin-2-yl)methyl]-1H-1,2,3-triazole-4-carboxamide]
EC50 (A549 cells): 0.1 to 0.5 µM
IC50 [1]: < 0.1 µM

O=C(Cc1cc(OC(F)(F)F)ccc1F)Nc1cn(CC(F)CCn2cc(C(=O)NCc3cc(OC(F)(F)F)ccc3F)nn2)nn1 (stereo not shown) [Example 377, 1[3-fluoro-4-(4-{2-[2-fluoro-5-(trifluoromethoxy)phenyl]acetamido}-1H-1,2,3-triazol-1-yl)butyl]-N-{[2-fluoro-5-(trifluoromethoxy)phenyl]methyl}-1H-1,2,3-triazole-4-carboxamide]
EC50 (A549 cells): < 0.1 µM
IC50 [1]: < 0.1 µM

CC(C)CNC(=O)c1nnc(CCCCc2ccc(NC(=O)Cc3cccc(OC(F)(F)F)c3)nn2)s1 [Example 31, N-(2-methylpropyl)-5-[4-(6-{2-[3-(trifluoromethoxy)phenyl]acetamido}pyridazin-3-yl)butyl]-1,3,4-thiadiazole-2-carboxamide]
EC50 (A549 cells): < 0.1 µM
IC50 [1]: < 0.1 µM

O=C(Cc1cccc(OC(F)(F)F)c1)Nc1ccc(CCCCc2nnc(C(=O)NCc3ccccc3)s2)nn1 [Example 36, N-benzyl-5-[4-(6-{2-[3-(trifluoromethoxy)phenyl]acetamido}pyridazin-3-yl)butyl]-1,3,4-thiadiazole-2-carboxamide]
EC50 (A549 cells): < 0.1 µM
IC50 [1]: < 0.1 µM

O=C(NCc1cccc(OC(F)(F)F)c1)c1cn(CC(F)CCc2nnc(C(=O)NCc3cncc(C(F)(F)F)c3)s2)nn1 (stereo not shown) [Example 483, 5-{3-fluoro-4-[4-({[3-(trifluoromethoxy)phenyl]methyl}carbamoyl)-1H-1,2,3-triazol-1-yl]butyl}-N-{[5-(trifluoromethyl)pyridin-3-yl]methyl}-1,3,4-thiadiazole-2-carboxamide]
EC50 (A549 cells): < 0.1 µM
IC50 [1]: < 0.1 µM

Cc1ccc(CNC(=O)c2cn(CCCCn3cc(NC(=O)Cc4cc(OC(F)(F)F)ccc4F)nn3)nn2)cn1 [Example 383, 1-[4-(4-{2-[2-fluoro-5-(trifluoromethoxy)phenyl]acetamido}-1H-1,2,3-triazol-1-yl)butyl]-N-[(6-methylpyridin-3-yl)methyl]-1H-1,2,3-triazole-4-carboxamide]
EC50 (A549 cells): < 0.1 µM
IC50 [1]: < 0.1 µM

O=C(NCc1cccc(OC(F)(F)F)c1)c1cn(CCCCc2nnc(C(=O)NC3COC3)s2)nn1 [Example 51, N-(oxetan-3-yl)-5-{4-[4-({[3-(trifluoromethoxy)phenyl]methyl}carbamoyl)-1H-1,2,3-triazol-1-yl]butyl}-1,3,4-thiadiazole-2-carboxamide]
EC50 (A549 cells): 0.5 to 5 µM
IC50 [1]: 0.1 to 0.5 µM

Cc1ccc(CC(=O)Nc2cn(CC(F)CCn3cc(C(=O)NCc4cccc(OC(F)(F)F)c4)nn3)nn2)cn1 (stereo not shown) [Example 342, 1-(3-fluoro-4-{4-[2-(6-methylpyridin-3-yl)acetamido]-1H-1,2,3-triazol-1-yl}butyl)-N-{[3-(trifluoromethoxy)phenyl]methyl}-1H-1,2,3-triazole-4-carboxamide]
EC50 (A549 cells): < 0.1 µM
IC50 [1]: < 0.1 µM

CNC(=O)c1nnc(CCCCn2cc(C(=O)NCc3cc(C(F)(F)F)ccn3)nn2)s1 [Example 603, N-methyl-5-(4-(4-(((4-(trifluoromethyl)pyridin-2-yl)methyl)carbamoyl)-1H-1,2,3-triazol-1-yl)butyl)-1,3,4-thiadiazole-2-carboxamide]
EC50 (A549 cells): > 5 µM
IC50 [1]: 0.5 to 5 µM

CNC(=O)c1cn(CCC(F)Cn2cc(C(=O)NCc3cncc4ccccc34)nn2)nn1 (stereo not shown) [Example 171, 1-(3-fluoro-4-{4-[(isoquinolin-4-ylmethyl)carbamoyl]-1H-1,2,3-triazol-1-yl}butyl)-N-methyl-1H-1,2,3-triazole-4-carboxamide]
EC50 (A549 cells): 0.5 to 5 µM
IC50 [1]: 0.1 to 0.5 µM

Cc1ccc(CC(=O)Nc2cn(CCCCn3cc(C(=O)NCc4cc(Cl)ccc4F)nn3)nn2)cn1 [Example 336, N-[(5-chloro-2-fluorophenyl)methyl]-1-(4-{4-[2-(6-methylpyridin-3-yl)acetamido]-1H-1,2,3-triazol-1-yl}butyl)-1H-1,2,3-triazole-4-carboxamide]
EC50 (A549 cells): 0.1 to 0.5 µM
IC50 [1]: < 0.1 µM

COCCNC(=O)c1cn(CC(F)CCc2nnc(NC(=O)Cc3cccc(OC(F)(F)F)c3)s2)nn1 (stereo not shown) [Example 532, 1-[2-fluoro-4-(5-{2-[3-(trifluoromethoxy)phenyl]acetamido}-1,3,4-thiadiazol-2-yl)butyl]-N-(2-methoxyethyl)-1H-1,2,3-triazole-4-carboxamide]
EC50 (A549 cells): 0.1 to 0.5 µM
IC50 [1]: < 0.1 µM

O=C(NCC1CCCCC1)c1cn(CCC(F)Cn2cc(C(=O)NCc3cc(C(F)(F)F)ccn3)nn2)nn1 (stereo not shown) [Example 456, 1-(4-{4-[(cyclohexylmethyl)carbamoyl]-1H-1,2,3-triazol-1-yl}-2-fluorobutyl)-N-{[4-(trifluoromethyl)pyridin-2-yl]methyl}-1H-1,2,3-triazole-4-carboxamide]
EC50 (A549 cells): < 0.1 µM
IC50 [1]: < 0.1 µM

O=C(NCc1cccc(OC(F)(F)F)c1)c1cn(CCCCc2nnc(C(=O)NCCO)s2)nn1 [Example 45, N-(2-hydroxyethyl)-5-{4-[4-({[3-(trifluoromethoxy)phenyl]methyl}carbamoyl)-1H-1,2,3-triazol-1-yl]butyl}-1,3,4-thiadiazole-2-carboxamide]
EC50 (A549 cells): 0.5 to 5 µM
IC50 [1]: 0.1 to 0.5 µM

N#CCNC(=O)c1nnc(CCC(F)Cn2cc(C(=O)NCc3cccc(OC(F)(F)F)c3)nn2)s1 (stereo not shown) [Example 515, N-(cyanomethyl)-5-{3-fluoro-4-[4-({[3-(trifluoromethoxy)phenyl]methyl}carbamoyl)-1H-1,2,3-triazol-1-yl]butyl}-1,3,4-thiadiazole-2-carboxamide]
EC50 (A549 cells): 0.1 to 0.5 µM
IC50 [1]: < 0.1 µM

CNC(=O)c1cn(CCCCn2cc(C(=O)NCc3cc(C(F)(F)F)ccn3)nn2)nn1 [Example 88, 1-{4-[4-(methylcarbamoyl)-1H-1,2,3-triazol-1-yl]butyl}-N-{[4-(trifluoromethyl)pyridin-2-yl]methyl}-1H-1,2,3-triazole-4-carboxamide]
EC50 (A549 cells): 0.5 to 5 µM
IC50 [1]: 0.5 to 5 µM

CC(=O)Nc1ccc(CCCCc2nnc(C(=O)NCc3cc(C(F)(F)F)ccn3)s2)nn1 [Example 601, 5-(4-(6-acetamidopyridazin-3-yl)butyl)-N-((4-(trifluoromethyl)pyridin-2-yl)methyl)-1,3,4-thiadiazole-2-carboxamide]
EC50 (A549 cells): < 0.1 µM
IC50 [1]: < 0.1 µM

COCCOc1cccc(CNC(=O)c2cn(CCCCn3cc(C(=O)NCc4cc(C(F)(F)F)ccn4)nn3)nn2)c1 [Example 125, 1-{4-[4-({[3-(2-methoxyethoxy)phenyl]methyl}carbamoyl)-1H-1,2,3-triazol-1-yl]butyl}-N-{[4-(trifluoromethyl)pyridin-2-yl]methyl}-1H-1,2,3-triazole-4-carboxamide]
EC50 (A549 cells): 0.1 to 0.5 µM
IC50 [1]: < 0.1 µM
